pIC50: −log10 of the molar value.
Key:
[1] = biological target: T1, Muscarinic acetylcholine receptor M4 (Homo sapiens, UniProt P08173); assay: Inhibition of human muscarinic acetylcholine M4 receptor expressed in CHO cells co-expressing Gqi5 in the presence of acetylcholine at EC80 concentration by calcium mobilization assay; format: functional, cell-based
T1 sequence (P08173 whole entry): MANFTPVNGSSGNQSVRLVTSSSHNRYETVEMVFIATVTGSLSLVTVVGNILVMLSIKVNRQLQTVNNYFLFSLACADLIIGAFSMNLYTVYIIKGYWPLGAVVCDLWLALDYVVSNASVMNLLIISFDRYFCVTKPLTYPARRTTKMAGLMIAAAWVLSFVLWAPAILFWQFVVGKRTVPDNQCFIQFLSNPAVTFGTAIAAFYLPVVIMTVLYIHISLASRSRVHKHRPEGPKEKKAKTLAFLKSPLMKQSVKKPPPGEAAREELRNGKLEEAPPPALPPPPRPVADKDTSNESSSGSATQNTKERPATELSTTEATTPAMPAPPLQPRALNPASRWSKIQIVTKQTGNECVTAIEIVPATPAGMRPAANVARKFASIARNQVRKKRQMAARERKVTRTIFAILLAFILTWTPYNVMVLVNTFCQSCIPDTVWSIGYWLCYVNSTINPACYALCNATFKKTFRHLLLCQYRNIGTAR

[2] = biological target: T2, Muscarinic acetylcholine receptor M4 (Homo sapiens) (UniProt P08173); assay: Antagonist activity at human muscarinic acetylcholine M4 receptor expressed in CHO cells co-expressing Gqi5 assessed as minimal acetylcholine response by calcium mobilization assay relative to control; format: functional, cell-based; design: scale not given: the % may be the effect or the level left; details: filed as antagonist
T2 sequence (whole entry): T1 sequence (P08173 whole entry)

[3] = biological target: T3, Muscarinic acetylcholine receptor M2 (Homo sapiens, UniProt P08172); assay: Inhibition of human muscarinic acetylcholine M2 receptor expressed in CHO cells co-expressing Gqi5 in the presence of acetylcholine at EC80 concentration by calcium mobilization assay; format: functional, cell-based
T3 sequence (P08172 whole entry): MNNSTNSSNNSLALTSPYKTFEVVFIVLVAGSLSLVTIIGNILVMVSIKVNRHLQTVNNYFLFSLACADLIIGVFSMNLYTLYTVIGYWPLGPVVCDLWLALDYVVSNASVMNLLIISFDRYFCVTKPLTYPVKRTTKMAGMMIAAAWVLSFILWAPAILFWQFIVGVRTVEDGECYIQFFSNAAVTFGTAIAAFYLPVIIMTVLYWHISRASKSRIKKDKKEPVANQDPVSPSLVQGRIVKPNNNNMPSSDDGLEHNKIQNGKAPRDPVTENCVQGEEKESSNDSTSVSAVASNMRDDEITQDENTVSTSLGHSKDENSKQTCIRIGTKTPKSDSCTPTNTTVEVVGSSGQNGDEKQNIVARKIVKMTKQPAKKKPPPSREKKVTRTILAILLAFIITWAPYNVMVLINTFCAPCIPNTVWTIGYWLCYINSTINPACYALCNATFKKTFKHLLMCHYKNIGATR

[4] = Selectivity ratio of IC50 for inhibition of human muscarinic acetylcholine M2 receptor to IC50 for inhibition of human muscarinic acetylcholine M4 receptor expressed in CHO cells co-expressing Gqi5 in the presence of acetylcholine at EC80 concentration by calcium mobilization assay; format: cell-based
Cytochrome P450 1A2 = biological target: T4, Cytochrome P450 1A2 (Homo sapiens, UniProt P05177); assay: Inhibition of CYP1A2 in human liver microsomes using cocktail of isoform-specific probe substrate; format: ADME, Microsome
T4 sequence (P05177 whole entry): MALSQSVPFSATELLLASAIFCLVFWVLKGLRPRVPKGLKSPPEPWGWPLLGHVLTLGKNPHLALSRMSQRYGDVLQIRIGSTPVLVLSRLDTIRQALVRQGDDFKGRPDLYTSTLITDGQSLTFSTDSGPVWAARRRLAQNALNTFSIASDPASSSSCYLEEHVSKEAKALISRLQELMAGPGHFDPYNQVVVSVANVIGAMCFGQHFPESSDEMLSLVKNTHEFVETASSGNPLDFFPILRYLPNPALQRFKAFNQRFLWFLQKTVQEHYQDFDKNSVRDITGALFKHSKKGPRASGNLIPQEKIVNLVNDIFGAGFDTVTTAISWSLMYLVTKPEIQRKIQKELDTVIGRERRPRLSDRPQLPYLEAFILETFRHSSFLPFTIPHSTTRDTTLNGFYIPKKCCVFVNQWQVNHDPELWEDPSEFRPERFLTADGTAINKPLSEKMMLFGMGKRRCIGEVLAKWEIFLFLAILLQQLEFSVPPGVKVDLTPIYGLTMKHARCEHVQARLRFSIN

Cytochrome P450 2C9 = Cytochrome P450 2C9 (Homo sapiens, UniProt P11712); assay: Inhibition of CYP2C9 in human liver microsomes using cocktail of isoform-specific probe substrate; format: ADME, Microsome
Sequence of Cytochrome P450 2C9 (P11712 whole entry, canonical isoform): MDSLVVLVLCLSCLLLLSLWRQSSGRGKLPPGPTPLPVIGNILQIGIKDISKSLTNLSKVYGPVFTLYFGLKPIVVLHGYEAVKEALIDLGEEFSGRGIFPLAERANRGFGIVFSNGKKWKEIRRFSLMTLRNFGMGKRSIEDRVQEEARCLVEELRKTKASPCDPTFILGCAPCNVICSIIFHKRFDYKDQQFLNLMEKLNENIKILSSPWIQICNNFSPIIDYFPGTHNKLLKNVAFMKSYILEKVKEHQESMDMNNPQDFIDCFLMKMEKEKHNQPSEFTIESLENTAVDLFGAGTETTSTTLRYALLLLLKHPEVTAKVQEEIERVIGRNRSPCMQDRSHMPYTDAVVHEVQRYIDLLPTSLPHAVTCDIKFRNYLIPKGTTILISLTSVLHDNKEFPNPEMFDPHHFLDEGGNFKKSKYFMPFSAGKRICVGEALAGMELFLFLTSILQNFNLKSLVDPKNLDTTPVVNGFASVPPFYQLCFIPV

Cytochrome P450 2D6 = Cytochrome P450 2D6 (Homo sapiens, UniProt P10635); assay: Inhibition of CYP2D6 in human liver microsomes using cocktail of isoform-specific probe substrate; format: ADME, Microsome
Sequence of Cytochrome P450 2D6 (P10635 whole entry, canonical isoform): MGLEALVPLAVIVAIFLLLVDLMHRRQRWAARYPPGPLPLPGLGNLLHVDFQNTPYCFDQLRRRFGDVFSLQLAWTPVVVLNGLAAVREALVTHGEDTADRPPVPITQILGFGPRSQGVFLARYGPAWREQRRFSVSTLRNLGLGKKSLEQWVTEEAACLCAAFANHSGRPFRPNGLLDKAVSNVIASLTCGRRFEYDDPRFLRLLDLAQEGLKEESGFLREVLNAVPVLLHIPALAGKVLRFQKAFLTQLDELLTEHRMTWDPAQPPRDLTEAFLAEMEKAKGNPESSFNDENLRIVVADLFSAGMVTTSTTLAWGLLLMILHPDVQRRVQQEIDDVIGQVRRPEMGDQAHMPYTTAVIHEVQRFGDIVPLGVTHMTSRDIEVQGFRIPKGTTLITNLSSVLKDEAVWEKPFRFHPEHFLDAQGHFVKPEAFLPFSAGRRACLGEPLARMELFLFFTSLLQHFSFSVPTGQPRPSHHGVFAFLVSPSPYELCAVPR

Cytochrome P450 3A4 = Cytochrome P450 3A4 (Homo sapiens, UniProt P08684); assay: Inhibition of CYP3A4 in human liver microsomes using cocktail of isoform-specific probe substrate; format: ADME, Microsome
Sequence of Cytochrome P450 3A4 (P08684 whole entry, canonical isoform): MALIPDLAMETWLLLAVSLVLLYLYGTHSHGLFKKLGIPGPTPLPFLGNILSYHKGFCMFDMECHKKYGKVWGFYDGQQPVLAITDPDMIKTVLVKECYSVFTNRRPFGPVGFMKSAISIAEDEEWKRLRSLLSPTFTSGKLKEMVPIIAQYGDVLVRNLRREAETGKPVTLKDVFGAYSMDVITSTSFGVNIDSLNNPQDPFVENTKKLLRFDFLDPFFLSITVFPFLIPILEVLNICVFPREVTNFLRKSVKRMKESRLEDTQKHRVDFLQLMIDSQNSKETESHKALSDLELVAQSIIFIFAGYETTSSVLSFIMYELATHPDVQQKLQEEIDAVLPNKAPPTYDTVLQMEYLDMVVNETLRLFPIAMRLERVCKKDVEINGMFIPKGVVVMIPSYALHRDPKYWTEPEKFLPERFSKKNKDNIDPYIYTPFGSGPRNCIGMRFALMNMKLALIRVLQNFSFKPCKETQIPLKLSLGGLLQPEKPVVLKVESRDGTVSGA

[5] = Intrinsic clearance in human liver microsomes; format: ADME, Microsome; details: read-out: CLH
[6] = biological target: T5, Muscarinic acetylcholine receptor M4 (Rattus norvegicus, UniProt P08485); assay: Inhibition of rat muscarinic acetylcholine M4 receptor expressed in CHO cells co-expressing Gqi5 in the presence of acetylcholine at EC80 concentration by calcium mobilization assay; format: functional, cell-based
T5 sequence (P08485 whole entry): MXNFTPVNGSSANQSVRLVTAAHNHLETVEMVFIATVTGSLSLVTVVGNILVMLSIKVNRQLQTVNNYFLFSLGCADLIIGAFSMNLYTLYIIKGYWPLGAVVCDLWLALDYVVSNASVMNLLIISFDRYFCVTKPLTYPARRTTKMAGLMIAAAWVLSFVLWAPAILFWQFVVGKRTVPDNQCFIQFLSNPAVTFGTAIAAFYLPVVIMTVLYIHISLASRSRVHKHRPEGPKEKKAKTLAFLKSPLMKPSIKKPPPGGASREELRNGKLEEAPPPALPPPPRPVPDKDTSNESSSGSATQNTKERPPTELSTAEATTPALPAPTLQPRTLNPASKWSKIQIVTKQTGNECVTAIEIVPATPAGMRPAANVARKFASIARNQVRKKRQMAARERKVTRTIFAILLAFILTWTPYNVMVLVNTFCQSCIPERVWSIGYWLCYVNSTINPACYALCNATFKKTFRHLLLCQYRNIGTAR

[7] = biological target: T6, Muscarinic acetylcholine receptor M4 (Rattus norvegicus) (UniProt P08485); assay: Antagonist activity at rat muscarinic acetylcholine M4 receptor expressed in CHO cells co-expressing Gqi5 assessed as minimal acetylcholine response by calcium mobilization assay relative to control; format: functional, cell-based; design: scale not given: the % may be the effect or the level left; details: filed as antagonist
T6 sequence (whole entry): T5 sequence (P08485 whole entry)

hERG (KCNH2) = hERG (KCNH2) (Homo sapiens, UniProt Q12809); assay: Inhibition of hERG at 10 uM by patch clamp method relative to control; format: toxicity
Sequence of hERG (KCNH2) (Q12809 whole entry): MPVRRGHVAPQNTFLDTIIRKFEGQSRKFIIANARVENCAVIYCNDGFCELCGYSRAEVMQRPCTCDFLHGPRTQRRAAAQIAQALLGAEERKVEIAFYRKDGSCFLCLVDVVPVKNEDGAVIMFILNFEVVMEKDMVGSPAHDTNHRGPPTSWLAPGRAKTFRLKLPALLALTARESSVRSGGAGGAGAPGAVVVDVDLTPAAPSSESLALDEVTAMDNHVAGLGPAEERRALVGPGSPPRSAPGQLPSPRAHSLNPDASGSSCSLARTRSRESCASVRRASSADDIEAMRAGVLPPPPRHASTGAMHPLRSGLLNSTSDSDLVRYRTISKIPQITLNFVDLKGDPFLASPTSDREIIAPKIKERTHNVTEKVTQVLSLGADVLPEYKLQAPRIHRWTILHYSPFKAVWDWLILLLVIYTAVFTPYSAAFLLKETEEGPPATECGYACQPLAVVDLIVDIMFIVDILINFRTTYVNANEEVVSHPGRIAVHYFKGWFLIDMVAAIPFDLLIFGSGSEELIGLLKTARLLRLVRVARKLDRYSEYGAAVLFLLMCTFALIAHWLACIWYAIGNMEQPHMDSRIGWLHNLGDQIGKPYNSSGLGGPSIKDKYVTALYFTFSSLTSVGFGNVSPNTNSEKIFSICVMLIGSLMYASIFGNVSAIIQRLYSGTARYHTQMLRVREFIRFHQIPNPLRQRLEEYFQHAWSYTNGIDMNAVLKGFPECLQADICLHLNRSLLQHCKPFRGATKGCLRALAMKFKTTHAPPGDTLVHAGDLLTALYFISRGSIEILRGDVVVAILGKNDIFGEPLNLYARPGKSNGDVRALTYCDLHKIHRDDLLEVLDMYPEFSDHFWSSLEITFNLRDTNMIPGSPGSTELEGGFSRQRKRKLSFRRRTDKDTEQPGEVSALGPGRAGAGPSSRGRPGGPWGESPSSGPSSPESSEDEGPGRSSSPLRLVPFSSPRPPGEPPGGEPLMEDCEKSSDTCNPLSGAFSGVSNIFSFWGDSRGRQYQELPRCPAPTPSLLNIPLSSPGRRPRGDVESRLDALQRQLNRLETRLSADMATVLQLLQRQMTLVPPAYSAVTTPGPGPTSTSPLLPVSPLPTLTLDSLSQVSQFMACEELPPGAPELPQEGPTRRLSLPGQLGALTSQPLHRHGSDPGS

Row | Compound | pIC50 [1] | Activity [2] | pIC50 [3] | pIC50 (Cytochrome P450 1A2) | pIC50 (Cytochrome P450 2C9) | pIC50 (Cytochrome P450 2D6) | pIC50 (Cytochrome P450 3A4) | predicted hepatic clearance [5] | Activity ([2]; tested as the 2H-labelled form) | Ratio IC50 [4] | pIC50 [6] | Activity [7] | Ratio IC50 ([4]; tested as the 2H-labelled form) | inhibition at 10 µM (hERG (KCNH2))
1 | Fc1ccc(-c2ccc(NC[C@@H]3CC34CCN(CC3CCOCC3)CC4)nn2)cc1 | 6.55 | 4.1% |  |  |  |  |  |  |  |  |  |  |  | 
2 | Fc1ccc(Cl)c(-c2ccc(NC[C@@H]3CC34CCN(CC3CCOCC3)CC4)nn2)c1 | 8.74 | 4.5% | 5.80 | < 4.52 | < 4.52 | 5.24 | < 4.52 | 15 mL/min/kg |  | 900 |  |  |  | 
3 | Fc1ccc(Cl)c(-c2ccc(NC[C@@H]3CC34CCN(CC3CCCCC3)CC4)nn2)c1 | 7.92 | 2.6% |  |  |  |  |  |  |  |  | 7.09 | 4.3% |  | 
4 | Fc1ccc(F)c(-c2ccc(NC[C@@H]3CC34CCN(CC3CCOCC3)CC4)nn2)c1 | 7.28 | 3.5% | 5.59 | < 4.52 | < 4.52 | 5.72 | 4.77 | 10 mL/min/kg |  | 60 |  |  |  | 
5 | Fc1cc(F)c(F)c(-c2ccc(NC[C@@H]3CC34CCN(CC3CCOCC3)CC4)nn2)c1 | 7.48 | 3% | 5.74 | < 4.52 | < 4.52 | 6.26 | < 4.52 | 8.4 mL/min/kg | 3.3% | 55 |  |  | 70 | 99%
6 | Fc1ccccc1-c1ccc(NC[C@@H]2CC23CCN(CC2CCOCC2)CC3)nn1 | 7.14 | 4.3% |  |  |  |  |  |  |  |  |  |  |  | 
7 | Fc1ccc(Cl)c(-c2ccc(NCC3CC34CCN(CC3CCCCC3)CC4)nn2)c1 (stereo not given) | 7.74 |  |  |  |  |  |  |  |  |  |  |  |  | 
8 | Fc1ccc(Cl)c(-c2ccc(NC[C@H]3CC34CCN(CC3CCCCC3)CC4)nn2)c1 | 7.55 | 3.7% |  |  |  |  |  |  |  |  | 6.28 | 4.4% |  | 
9 | Fc1ccc(Cl)c(-c2ccc(NC3CC34CCN(CC3CCOCC3)CC4)nn2)c1 (racemic) | < 5.00 |  |  |  |  |  |  |  |  |  |  |  |  | 

Now from value to compound, other results behind:

Row | pIC50 [1] | Activity [2] | pIC50 [3] | pIC50 (Cytochrome P450 1A2) | pIC50 (Cytochrome P450 2C9) | pIC50 (Cytochrome P450 2D6) | pIC50 (Cytochrome P450 3A4) | predicted hepatic clearance [5] | Activity ([2]; tested as the 2H-labelled form) | Compound | Ratio IC50 [4] | pIC50 [6] | Activity [7] | Ratio IC50 ([4]; tested as the 2H-labelled form) | inhibition at 10 µM (hERG (KCNH2))
10 | 7.27 | 4.2% |  |  |  |  |  |  |  | Fc1cccc(-c2ccc(NC[C@@H]3CC34CCN(CC3CCOCC3)CC4)nn2)c1 |  |  |  |  | 
11 | 6.92 | 3.5% | < 5.00 | < 4.52 | < 4.52 | 5.60 | < 4.52 | 8 mL/min/kg |  | c1ccc(-c2ccc(NC[C@@H]3CC34CCN(CC3CCOCC3)CC4)nn2)cc1 | > 80 |  |  |  | 
12 | 6.89 | 3.6% | 5.21 | < 4.52 | < 4.52 | 4.70 | < 4.52 | 5.9 mL/min/kg |  | Cn1cc2cc(-c3ccc(NC[C@@H]4CC45CCN(CC4CCOCC4)CC5)nn3)ccc2n1 | 50 |  |  |  | 
13 | 5.54 | 7.8% |  |  |  |  |  |  |  | Fc1ccc(Cl)c(-c2ccc(NC3CC4(C3)CN(CC3CCOCC3)C4)nn2)c1 |  |  |  |  | 
14 |  | 4.7% |  |  |  |  |  |  |  | Fc1ccc(Cl)c(-c2ccc(NCC3CC4(CCN(CC5CCOCC5)CC4)C3)nn2)c1 |  |  |  |  | 
15 | 7.38 |  | 5.52 | < 4.52 | < 4.52 | < 4.52 | 4.56 | 11 mL/min/kg |  | [2H]C([2H])(C1CCOCC1)N1CCC2(CC1)C[C@H]2CNc1ccc(-c2cc(F)cc(F)c2F)nn1 |  |  |  |  | 98%
